Data as given in patent publication US6903132B2, “Non-peptide GnRH agents, pharmaceutical compositions and methods for their use” (Agouron Pharmaceuticals, Inc., priority 2002, dated 2005).

Experiments:
Assay in all cases: Radioligand binding assay: inhibition of binding of 125I-GnRH-A to GnRH receptors (membranes)
mouse GnRH receptors = target: T1, mouse GnRH receptors (Mus musculus, UniProt Q01776); conditions: Mouse GnRH receptor; competition with 125I-GnRH-A; Ki calculated from IC50 (Cheng et al.)
T1 construct: expressed in transfected cells; host or cells: HEK 293
T1 sequence (Q01776 1-327): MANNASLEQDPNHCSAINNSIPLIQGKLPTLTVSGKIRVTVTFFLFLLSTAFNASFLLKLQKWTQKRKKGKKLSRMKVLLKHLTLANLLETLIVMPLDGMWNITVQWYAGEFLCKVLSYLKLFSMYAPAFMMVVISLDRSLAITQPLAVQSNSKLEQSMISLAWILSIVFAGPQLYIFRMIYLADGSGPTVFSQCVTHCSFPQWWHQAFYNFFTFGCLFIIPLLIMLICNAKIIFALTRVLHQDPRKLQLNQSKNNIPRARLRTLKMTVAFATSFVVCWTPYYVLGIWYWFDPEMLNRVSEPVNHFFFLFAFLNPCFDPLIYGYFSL
Outline: (§1)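 Membranes from HEK 293 expressing mouse or human receptor, or rat pituitaries, incubated 1 h at RT with ~0.04–0.06 nM ¹²⁵I-[des-Gly¹⁰,D-Ala⁶]GnRH ethylamide and competitor (0.1–10,000 nM) in HEPES pH 7.4 with MgCl2, EDTA, BSA. Filtration onto PEI-soaked GF/C filters, scintillation counting; Ki from IC50 by Cheng–Prusoff.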

rat GnRH receptor = target: T2, rat GnRH receptor (Rattus norvegicus, UniProt P30969); conditions: competition with 125I-GnRH-A, Ki calculated from IC50 (Cheng et al.)
T2 construct: rat pituitaries (Pel Freez Biologicals, Rogers, Ark.) are homogenized in buffer A; tissue Pel Freez Biologicals; host or cells: rat pituitaries
T2 sequence (P30969 1-327): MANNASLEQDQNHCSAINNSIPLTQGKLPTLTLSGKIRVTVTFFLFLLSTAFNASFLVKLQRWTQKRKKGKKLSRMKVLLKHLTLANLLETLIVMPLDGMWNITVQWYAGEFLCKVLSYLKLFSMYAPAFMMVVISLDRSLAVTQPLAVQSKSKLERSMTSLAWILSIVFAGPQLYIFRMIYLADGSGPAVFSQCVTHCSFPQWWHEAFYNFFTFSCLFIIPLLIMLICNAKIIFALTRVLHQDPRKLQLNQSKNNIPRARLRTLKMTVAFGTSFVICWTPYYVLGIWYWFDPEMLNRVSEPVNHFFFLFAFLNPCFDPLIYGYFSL
Outline: as §1

human GnRH receptors = target: T3, human GnRH receptors (Homo sapiens, UniProt P30968); conditions: Human GnRH receptor; competition with 125I-GnRH-A; Ki calculated from IC50 (Cheng et al.)
T3 construct: expressed in transfected cells; host or cells: HEK 293
T3 sequence (P30968 1-328): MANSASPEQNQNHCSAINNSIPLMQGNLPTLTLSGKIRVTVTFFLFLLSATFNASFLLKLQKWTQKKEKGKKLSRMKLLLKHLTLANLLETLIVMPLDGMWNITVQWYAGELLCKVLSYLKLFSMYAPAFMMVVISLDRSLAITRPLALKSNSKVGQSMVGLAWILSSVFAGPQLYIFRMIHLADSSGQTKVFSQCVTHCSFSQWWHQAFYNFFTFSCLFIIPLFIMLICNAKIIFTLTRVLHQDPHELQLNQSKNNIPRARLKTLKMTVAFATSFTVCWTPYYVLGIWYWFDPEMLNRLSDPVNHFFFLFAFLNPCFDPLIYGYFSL
Outline: as §1

Ki (mouse GnRH receptors) | Ki (rat GnRH receptor) | Ki (human GnRH receptors) | SMILES
260 nM | 1160 nM | 165 nM | Cc1cc(NNC(=O)c2ccc(Oc3cc(C(C)(C)C)c(Br)cc3Br)o2)nc2c1c(C)nn2C [Example I12, 5-(2,4-Dibromo-5-tert-butyl-phenoxy)-furan-2-carboxylic acid N′-(1,3,4-trimethyl-1H-pyrazolo[3,4-b]pyridin-6-yl)-hydrazide]
43 nM | 50 nM | 70 nM | Cc1ccc(C(C)(C)C)cc1Oc1ccc(C(=O)NNc2ccc3ccccc3n2)o1 [Example I17, 5-(5-tert-Butyl-2-methyl-phenoxy)-furan-2-carboxylic acid N′-quinolin-2-yl-hydrazide]
59 nM | 154 nM | 58 nM | Cc1cc2c(cc1Oc1ccc(C(=O)NNc3cc(C)c4c(C)nn(C)c4n3)o1)C(c1ccccc1)CCC2 (stereo not drawn) [Example I18, 5-(3-Methyl-8-phenyl-5,6,7,8-tetrahydro-naphthalen-2-yloxy)-furan-2-carboxylic acid N′-(1,3,4-trimethyl-1H-pyrazolo[3,4-b]pyridin-6-yl)-hydrazide]
44 nM | 39 nM | 17 nM | Cc1ccc(C(C)(C)C)cc1Oc1ccc(C(=O)NNc2cc(C)c3c(C)nn(C)c3n2)o1 [Example I19, 5-(5-tert-Butyl-2-methyl-phenoxy)-furan-2-carboxylic acid N′-(1,3,4-trimethyl-1H-pyrazolo[3,4-b]pyridin-6-yl)-hydrazide]
4 nM | 7.3 nM | 3.8 nM | Cc1cc2c(cc1Oc1ccc(C(=O)NNc3ccc4ccccc4n3)o1)C(C)(C)CC(C)C2(C)C (stereo not drawn) [Example I20, 5-(3,5,5,6,8,8-Hexamethyl-5,6,7,8-tetrahydro-naphthalen-2-yloxy)-furan-2-carboxylic acid N′-quinolin-2-yl-hydrazide]
5 nM | 22 nM | 4.2 nM | Cc1cc2c(cc1Oc1ccc(C(=O)NNc3cc(C)c4c(C)nn(C)c4n3)o1)C(C)(C)CCC2 [Example I21, N′-(1,3,4-trimethyl-1H-pyrazolo[3,4-b]pyridin-6-y)-5-[(3,8,8-trimethyl-5,6,7,8-tetrahydro-2-naphthalenyl)oxy]-2-furohydrazide]
22 nM | 370 nM | 30 nM | Cc1cc(Cl)c(C(C)C)cc1Oc1ccc(C(=O)NNc2cc(C)c3c(C)nn(C)c3n2)o1 [Example I23, 5-(4-Chloro-5-isopropyl-2-methyl-phenoxy)-furan-2-carboxylic acid N′-(1,3,4-trimethyl-1H-pyrazolo[3,4-b]pyridin-6-yl)-hydrazide]
38 nM | 59 nM | 31 nM | COc1cc2c(c(C)c1Oc1ccc(C(=O)NNc3cc(C)c4c(C)nn(C)c4n3)o1)C(C)(C)CCC2(C)C [Example I25, 5-(3-Methoxy-1,5,5,8,8-pentamethyl-5,6,7,8-tetrahydro-naphthalen-2-yloxy)-furan-2-carboxylic acid N′-(1,3,4-trimethyl-1H-pyrazolo[3,4-b]pyridin-6-yl)-hydrazide]
14 nM | 25 nM | 8.3 nM | Cc1cc(NNC(=O)c2ccc(Oc3cc4c(cc3Cl)NCCC4(C)C)o2)nc2c1c(C)nn2C [Example I26, 5-(7-Chloro-4,4-dimethyl-1,2,3,4-tetrahydro-quinolin-6-yloxy)-furan-2-carboxylic acid N′-(1,3,4-trimethyl-1H-pyrazolo[3,4-b]pyridin-6-yl)-hydrazide]
122 nM | 370 nM | 101 nM | Cc1cc(NNC(=O)c2ccc(Oc3cc4c(cc3Cl)N(C)CCC4(C)C)o2)nc2c1c(C)nn2C [Example I27, 5-(7-Chloro-1,4,4-trimethyl-1,2,3,4-tetrahydro-quinolin-6-yloxy)-furan-2-carboxylic acid N′-(1,3,4-trimethyl-1H-pyrazolo[3,4-b]pyridin-6-yl)-hydrazide]
2.6 nM | 4.2 nM | 0.3 nM | COc1c(Oc2ccc(C(=O)NNc3cc(C)c4c(C)nn(C)c4n3)o2)c(C)cc2c1C(C)(C)CCC2(C)C [Example I28, 5-(1-Methoxy-3,5,5,8,8-pentamethyl-5,6,7,8-tetrahydro-naphthalen-2-yloxy)-furan-2-carboxylic acid N′-(1,3,4-trimethyl-1H-pyrazolo[3,4-b]pyridin-6-yl)-hydrazide]
58 nM | 64 nM | 49 nM | Cc1cc2c(c(O)c1Oc1ccc(C(=O)NNc3cc(C)c4c(C)nn(C)c4n3)o1)C(C)(C)CCC2(C)C [Example I29, 5-(1-Hydroxy-3,5,5,8,8-pentamethyl-5,6,7,8-tetrahydro-naphthalen-2-yloxy)-furan-2-carboxylic acid N′-(1,3,4-trimethyl-1H-pyrazolo[3,4-b]pyridin-6-yl)-hydrazide]
850 nM | 1200 nM | 260 nM | Cc1cc(C)c(C)c(Cc2ccc(C(=O)NNc3cc(C)c4c(C)nn(C)c4n3)o2)c1C [Example J12, 5-(2,3,5,6-Tetramethylbenzyl)-N′-(1,3,4-trimethyl-1H-pyrazolo[3,4-b]pyridin-6-yl)-2-furohydrazide]
3.3 nM | 2 nM | 0.9 nM | Cc1cc2c(cc1Cc1ccc(C(=O)NNc3cc(C)c4c(C)nn(C)c4n3)o1)C(C)(C)CC2(C)C [Example J15, 5-[(1,1,3,3,6-pentamethyl-2,3-dihydro-1H-inden-5-yl)methyl]-N-(1,3,4-trimethyl-1H-pyrazdo[3,4-b]Pyridin-6-yl)-2-furohydrazide]
233 nM | 122 nM | 97 nM | Cc1ccc(C2CCCCC2)cc1Cc1ccc(C(=O)NNc2cc(C)c3c(C)nn(C)c3n2)o1 [Example J16, 5-(5-cyclohexyl-2-methylbenzyl)-N′-(1,3,4-trimethyl-1H-pyrazolo[3,4-b]pyridin-6-yl)-2-furohydrazide]
480 nM | 290 nM | 170 nM | Cc1cc(C)c(-c2ccccc2)cc1Cc1ccc(C(=O)NNc2cc(C)c3c(C)nn(C)c3n2)o1 [Example J18, 5-[(4,6-dimethyl[1,1′-biphenyl]-3-yl)methyl]-N′-(1,3,4-trimethyl-1H-pyrazolo[3,4-b]pyridin-6-yl)-2-furohydrazide]
320 nM | 230 nM | 140 nM | COc1ccc(C(C)(C)C)cc1Cc1ccc(C(=O)NNc2cc(C)c3c(C)nn(C)c3n2)o1 [Example J19, 5-[5-(tert-butyl)-2-methoxybenzyl]-N′-(1,3,4-trimethyl-1H-pyrazolo[3,4-b]pyridin-6-yl)-2-furohydrazide]
280 nM | 660 nM | 140 nM | Cc1sc2c(c1Cc1ccc(C(=O)NNc3cc(C)c4c(C)nn(C)c4n3)o1)C(C)(C)CCC2(C)C [Example J23]
400 nM | 1130 nM | 130 nM | COc1c(C(C)C)cc(Cl)c(C)c1Cc1ccc(C(=O)NNc2cc(C)c3c(C)nn(C)c3n2)o1 [Example J24, 5-(3-chloro-5-isopropyl-6-methoxy-2-methylbenzyl)-N′-(1,3,4-trimethyl-1H-pyrazolo[3,4-b]pyridin-6-yl)-2-furohydrazide]
130 nM | 245 nM | 30 nM | Cc1sc2c(c1Cc1ccc(C(=O)NNc3cc(C)c4c(C)nn(C)c4n3)o1)C(C)(C)CCC2(C)C [Example J28, 5-(2,4,4,7,7-Pentamethyl-4,5,6,7-tetrahydro-benzo[b]thiophen-3-ylmethyl)-furan-2-carboxylic acid N′-(1,3,4-trimethyl-1H-pyrazolo[3,4-b]pyridin-6-yl)-hydrazide]
3.7 nM | 3.9 nM | 1.8 nM | Cc1cc2c(cc1Oc1ccc(C(=O)NNc3cc(C)c4c(C)nn(C)c4n3)o1)C(C)(C)C(C)C2(C)C (stereo not drawn) [Example M4, 5-(1,1,2,3,3,6-Hexamethyl-indan-5-yloxy)-furan-2-carboxylic acid N′-(1,3,4-trimethyl-1H-pyrazolo[3,4-b]pyridin-6-yl)-hydrazide]
